Results: ChEMBL document CHEMBL5291721, “A preclinical secondary pharmacology resource illuminates target-adverse drug reaction associations of marketed drugs” (Nat Commun, 2023)

Experiments:
Histamine H3 receptor = Histamine H3 receptor (Homo sapiens, UniProt Q9Y5N1)
[1] = biological target: 5-hydroxytryptamine receptor 2A (Homo sapiens, UniProt P28223); type: functional, cell-based
D(1A) dopamine receptor = D(1A) dopamine receptor (Homo sapiens, UniProt P21728); type: functional, cell-based
[2] = biological target: T1, Alpha-2B adrenergic receptor (Homo sapiens, UniProt P18089)
T1 sequence (P18089 whole entry): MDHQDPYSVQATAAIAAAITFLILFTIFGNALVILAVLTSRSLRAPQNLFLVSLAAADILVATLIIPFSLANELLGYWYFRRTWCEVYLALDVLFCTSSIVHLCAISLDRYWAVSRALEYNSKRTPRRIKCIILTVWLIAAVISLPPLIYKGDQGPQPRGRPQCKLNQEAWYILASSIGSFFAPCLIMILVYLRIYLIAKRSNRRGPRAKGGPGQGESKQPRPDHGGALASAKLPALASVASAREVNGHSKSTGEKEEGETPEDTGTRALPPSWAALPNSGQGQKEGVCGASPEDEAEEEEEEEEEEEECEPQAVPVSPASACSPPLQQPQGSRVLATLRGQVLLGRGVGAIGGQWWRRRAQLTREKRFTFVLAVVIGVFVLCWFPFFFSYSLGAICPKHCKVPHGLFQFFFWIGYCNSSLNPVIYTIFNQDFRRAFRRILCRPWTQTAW

[3] = biological target: Neuronal acetylcholine receptor subunit alpha-4 (Homo sapiens, UniProt P43681)
[4] = biological target: 5-hydroxytryptamine receptor 2B (Homo sapiens, UniProt P41595); type: functional, cell-based
[5] = biological target: Beta-1 adrenergic receptor (Homo sapiens, UniProt P08588); type: functional
Vasopressin V2 receptor = Vasopressin V2 receptor (Homo sapiens, UniProt P30518)
[6] = biological target: T2, 5-hydroxytryptamine receptor 1A (Homo sapiens, UniProt P08908); type: functional, cell-based
T2 sequence (P08908 whole entry): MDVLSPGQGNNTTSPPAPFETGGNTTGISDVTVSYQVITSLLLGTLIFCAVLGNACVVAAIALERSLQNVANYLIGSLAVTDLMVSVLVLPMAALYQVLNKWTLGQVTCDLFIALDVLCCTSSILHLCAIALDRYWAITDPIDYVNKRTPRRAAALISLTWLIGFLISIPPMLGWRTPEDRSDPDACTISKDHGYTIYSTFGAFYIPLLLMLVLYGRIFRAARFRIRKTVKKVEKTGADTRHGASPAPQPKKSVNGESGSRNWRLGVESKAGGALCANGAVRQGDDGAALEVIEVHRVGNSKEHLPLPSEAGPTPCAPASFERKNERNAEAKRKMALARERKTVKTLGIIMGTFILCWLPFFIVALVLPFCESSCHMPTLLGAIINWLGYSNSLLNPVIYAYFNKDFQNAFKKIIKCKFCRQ

[7] = biological target: T3, Alpha-1A adrenergic receptor (Homo sapiens, UniProt P35348); type: functional, cell-based
T3 sequence (P35348 whole entry): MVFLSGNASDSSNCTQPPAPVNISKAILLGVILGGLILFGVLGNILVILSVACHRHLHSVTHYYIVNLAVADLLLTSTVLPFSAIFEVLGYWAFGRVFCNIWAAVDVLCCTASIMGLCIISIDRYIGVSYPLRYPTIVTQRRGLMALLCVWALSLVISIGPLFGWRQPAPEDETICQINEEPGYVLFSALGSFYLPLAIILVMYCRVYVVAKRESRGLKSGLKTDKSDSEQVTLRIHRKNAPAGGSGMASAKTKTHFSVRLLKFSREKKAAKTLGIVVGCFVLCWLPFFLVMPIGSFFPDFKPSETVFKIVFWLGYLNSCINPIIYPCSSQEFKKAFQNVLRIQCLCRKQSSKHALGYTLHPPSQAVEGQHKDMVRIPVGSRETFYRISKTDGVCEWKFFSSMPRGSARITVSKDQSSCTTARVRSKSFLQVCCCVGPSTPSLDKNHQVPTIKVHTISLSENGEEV

[8] = biological target: T4, Alpha-2A adrenergic receptor (Homo sapiens, UniProt P08913); type: functional, cell-based
T4 sequence (P08913 whole entry): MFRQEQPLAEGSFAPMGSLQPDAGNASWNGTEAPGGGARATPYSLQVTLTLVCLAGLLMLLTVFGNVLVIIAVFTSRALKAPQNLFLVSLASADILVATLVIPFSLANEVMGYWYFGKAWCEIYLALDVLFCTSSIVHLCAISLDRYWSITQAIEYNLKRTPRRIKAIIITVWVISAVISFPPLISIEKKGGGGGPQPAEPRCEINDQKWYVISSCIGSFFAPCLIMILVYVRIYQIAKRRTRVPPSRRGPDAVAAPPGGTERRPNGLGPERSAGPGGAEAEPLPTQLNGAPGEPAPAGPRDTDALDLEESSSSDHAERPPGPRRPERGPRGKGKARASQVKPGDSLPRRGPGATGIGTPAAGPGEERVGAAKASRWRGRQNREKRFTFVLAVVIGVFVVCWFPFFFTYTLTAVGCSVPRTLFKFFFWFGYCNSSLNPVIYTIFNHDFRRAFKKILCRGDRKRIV

[9] = biological target: T5, Equilibrative nucleoside transporter 1 (Homo sapiens, UniProt Q99808)
T5 sequence (Q99808 whole entry): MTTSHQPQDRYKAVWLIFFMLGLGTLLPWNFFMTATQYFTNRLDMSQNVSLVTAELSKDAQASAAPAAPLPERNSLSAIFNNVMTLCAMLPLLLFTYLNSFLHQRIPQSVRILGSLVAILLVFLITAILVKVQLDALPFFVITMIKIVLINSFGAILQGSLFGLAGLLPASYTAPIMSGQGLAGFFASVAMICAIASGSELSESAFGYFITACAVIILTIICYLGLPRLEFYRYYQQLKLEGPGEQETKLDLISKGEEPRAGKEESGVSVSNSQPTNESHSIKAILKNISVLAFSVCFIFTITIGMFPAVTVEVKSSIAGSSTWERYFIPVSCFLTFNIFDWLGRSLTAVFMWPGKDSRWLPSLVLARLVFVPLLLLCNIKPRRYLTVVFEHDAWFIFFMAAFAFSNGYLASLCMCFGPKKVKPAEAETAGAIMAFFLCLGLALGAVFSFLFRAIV

Histamine H1 receptor = Histamine H1 receptor (Homo sapiens, UniProt P35367)
Note: assay procedure not described here.

Histamine H1 receptor, sequence (P35367 whole entry): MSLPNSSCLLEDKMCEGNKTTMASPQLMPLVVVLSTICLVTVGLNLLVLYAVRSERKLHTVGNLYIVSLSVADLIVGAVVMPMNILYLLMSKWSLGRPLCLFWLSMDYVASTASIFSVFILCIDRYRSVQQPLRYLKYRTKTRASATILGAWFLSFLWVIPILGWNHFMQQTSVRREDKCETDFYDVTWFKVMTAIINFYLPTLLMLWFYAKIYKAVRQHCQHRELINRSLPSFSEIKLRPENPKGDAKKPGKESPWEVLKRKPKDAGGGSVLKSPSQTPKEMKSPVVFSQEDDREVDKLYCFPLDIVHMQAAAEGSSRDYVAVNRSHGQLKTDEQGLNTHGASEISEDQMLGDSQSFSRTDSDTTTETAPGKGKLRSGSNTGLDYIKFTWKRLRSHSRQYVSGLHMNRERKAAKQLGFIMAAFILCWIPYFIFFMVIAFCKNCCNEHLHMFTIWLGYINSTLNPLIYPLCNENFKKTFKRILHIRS
Neuronal acetylcholine receptor subunit alpha-4, sequence (P43681 whole entry): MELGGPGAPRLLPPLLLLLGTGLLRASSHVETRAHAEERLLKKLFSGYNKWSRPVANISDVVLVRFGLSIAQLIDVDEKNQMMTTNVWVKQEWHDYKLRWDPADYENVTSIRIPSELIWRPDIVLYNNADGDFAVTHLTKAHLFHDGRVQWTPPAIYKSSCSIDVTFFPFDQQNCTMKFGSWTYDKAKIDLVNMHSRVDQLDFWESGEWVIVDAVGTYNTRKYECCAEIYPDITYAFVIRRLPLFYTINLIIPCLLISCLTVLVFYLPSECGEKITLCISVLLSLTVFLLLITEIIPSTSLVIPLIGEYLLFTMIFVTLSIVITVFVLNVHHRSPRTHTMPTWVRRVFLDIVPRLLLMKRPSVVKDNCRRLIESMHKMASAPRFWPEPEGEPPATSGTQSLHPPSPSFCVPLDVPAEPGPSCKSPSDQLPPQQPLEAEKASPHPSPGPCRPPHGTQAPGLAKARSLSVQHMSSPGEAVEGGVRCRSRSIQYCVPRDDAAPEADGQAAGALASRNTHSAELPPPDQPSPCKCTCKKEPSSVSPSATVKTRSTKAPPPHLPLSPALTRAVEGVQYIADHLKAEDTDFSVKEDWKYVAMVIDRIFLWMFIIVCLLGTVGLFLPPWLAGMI
5-hydroxytryptamine receptor 2B, sequence (P41595 whole entry): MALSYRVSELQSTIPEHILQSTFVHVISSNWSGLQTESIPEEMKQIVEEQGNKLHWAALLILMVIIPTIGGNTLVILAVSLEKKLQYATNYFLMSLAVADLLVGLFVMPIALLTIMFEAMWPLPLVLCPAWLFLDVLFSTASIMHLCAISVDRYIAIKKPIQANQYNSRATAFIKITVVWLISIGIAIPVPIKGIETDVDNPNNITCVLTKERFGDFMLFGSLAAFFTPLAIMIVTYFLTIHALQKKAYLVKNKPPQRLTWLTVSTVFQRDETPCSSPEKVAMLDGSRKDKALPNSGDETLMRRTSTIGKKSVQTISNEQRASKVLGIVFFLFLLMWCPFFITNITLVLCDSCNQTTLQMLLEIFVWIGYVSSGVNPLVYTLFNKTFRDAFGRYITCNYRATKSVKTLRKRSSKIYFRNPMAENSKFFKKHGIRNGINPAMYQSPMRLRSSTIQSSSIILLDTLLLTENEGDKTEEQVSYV
Vasopressin V2 receptor, sequence (P30518 whole entry): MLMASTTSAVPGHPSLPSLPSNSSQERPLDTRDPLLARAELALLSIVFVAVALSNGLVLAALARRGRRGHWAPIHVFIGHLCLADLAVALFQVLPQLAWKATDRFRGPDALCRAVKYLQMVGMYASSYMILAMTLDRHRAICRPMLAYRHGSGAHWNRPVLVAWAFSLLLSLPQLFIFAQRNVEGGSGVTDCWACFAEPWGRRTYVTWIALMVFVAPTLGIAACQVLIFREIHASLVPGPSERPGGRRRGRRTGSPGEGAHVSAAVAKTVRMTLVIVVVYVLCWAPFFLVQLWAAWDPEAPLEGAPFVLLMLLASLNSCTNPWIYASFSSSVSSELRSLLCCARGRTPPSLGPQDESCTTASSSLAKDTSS
D(1A) dopamine receptor, sequence (P21728 whole entry): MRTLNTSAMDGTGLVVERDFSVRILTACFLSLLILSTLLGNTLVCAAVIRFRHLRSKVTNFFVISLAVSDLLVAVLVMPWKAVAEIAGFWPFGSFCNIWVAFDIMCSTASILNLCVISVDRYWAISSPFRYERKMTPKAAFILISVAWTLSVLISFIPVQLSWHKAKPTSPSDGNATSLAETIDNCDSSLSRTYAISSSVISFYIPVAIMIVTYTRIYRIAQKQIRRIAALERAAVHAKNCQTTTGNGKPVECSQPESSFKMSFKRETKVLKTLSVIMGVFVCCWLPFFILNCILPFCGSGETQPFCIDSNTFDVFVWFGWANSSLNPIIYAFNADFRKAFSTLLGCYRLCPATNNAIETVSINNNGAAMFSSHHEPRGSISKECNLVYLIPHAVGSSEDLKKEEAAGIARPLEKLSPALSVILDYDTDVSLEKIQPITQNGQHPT
5-hydroxytryptamine receptor 2A, sequence (P28223 whole entry): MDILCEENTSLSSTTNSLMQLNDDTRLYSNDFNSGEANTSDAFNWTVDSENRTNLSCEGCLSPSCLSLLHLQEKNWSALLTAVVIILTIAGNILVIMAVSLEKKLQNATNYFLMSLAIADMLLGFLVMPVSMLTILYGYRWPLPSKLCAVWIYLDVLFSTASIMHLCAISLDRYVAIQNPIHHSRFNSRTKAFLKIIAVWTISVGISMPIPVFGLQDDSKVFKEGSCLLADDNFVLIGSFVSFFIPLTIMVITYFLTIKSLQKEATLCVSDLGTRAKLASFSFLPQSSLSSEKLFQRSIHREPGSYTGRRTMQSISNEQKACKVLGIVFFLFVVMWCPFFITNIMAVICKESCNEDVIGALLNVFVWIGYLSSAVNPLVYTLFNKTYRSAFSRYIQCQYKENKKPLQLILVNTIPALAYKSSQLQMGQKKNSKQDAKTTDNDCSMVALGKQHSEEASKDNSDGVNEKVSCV
Histamine H3 receptor, sequence (Q9Y5N1 whole entry): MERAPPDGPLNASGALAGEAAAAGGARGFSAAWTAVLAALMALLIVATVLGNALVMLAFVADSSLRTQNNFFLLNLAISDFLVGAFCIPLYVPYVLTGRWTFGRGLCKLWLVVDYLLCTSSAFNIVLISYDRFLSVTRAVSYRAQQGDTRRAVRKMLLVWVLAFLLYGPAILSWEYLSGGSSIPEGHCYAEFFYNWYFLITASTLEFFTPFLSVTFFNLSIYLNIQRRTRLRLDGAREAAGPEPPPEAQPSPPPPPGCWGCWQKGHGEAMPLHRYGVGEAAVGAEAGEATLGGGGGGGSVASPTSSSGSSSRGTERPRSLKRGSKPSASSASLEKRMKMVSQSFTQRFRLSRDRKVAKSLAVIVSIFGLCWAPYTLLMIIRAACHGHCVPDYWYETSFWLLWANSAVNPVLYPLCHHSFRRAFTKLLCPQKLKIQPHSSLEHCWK
Beta-1 adrenergic receptor, sequence (P08588 whole entry): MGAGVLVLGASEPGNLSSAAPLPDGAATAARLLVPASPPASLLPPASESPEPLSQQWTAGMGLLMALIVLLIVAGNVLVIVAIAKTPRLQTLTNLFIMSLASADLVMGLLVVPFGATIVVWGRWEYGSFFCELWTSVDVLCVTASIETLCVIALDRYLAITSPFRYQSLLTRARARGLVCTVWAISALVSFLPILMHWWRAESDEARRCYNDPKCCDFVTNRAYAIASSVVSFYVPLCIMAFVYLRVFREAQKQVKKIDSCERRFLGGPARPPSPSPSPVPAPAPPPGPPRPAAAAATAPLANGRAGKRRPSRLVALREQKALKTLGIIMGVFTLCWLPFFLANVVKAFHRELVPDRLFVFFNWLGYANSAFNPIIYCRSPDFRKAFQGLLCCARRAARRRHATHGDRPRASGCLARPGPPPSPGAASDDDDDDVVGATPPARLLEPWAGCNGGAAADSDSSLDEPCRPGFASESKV

SMILES | AC50 (Histamine H3 receptor) [µM] | AC50 [1] [µM] | AC50 (D(1A) dopamine receptor) [µM] | AC50 [2] [µM] | AC50 [3] [µM] | AC50 [4] [µM] | AC50 [5] [µM] | AC50 (Vasopressin V2 receptor) [µM] | AC50 [6] [µM] | AC50 [7] [µM] | AC50 [8] [µM] | AC50 [9] [µM] | AC50 (Histamine H1 receptor) [µM]
O=C(C[S+]([O-])C(c1ccccc1)c1ccccc1)NO (stereo unspecified) | > 30 | > 30 | > 30 | > 30 | > 30 | > 30 | > 30 | > 30 | > 30 | > 30 | > 30 | > 30 | > 30
NC(CO)C(=O)NNCc1ccc(O)c(O)c1O (stereo unspecified) [BENSERAZIDE] | > 10 | > 30 | > 10 | > 10 | > 10 | > 10 | > 10 | > 30 | > 10 | > 30 | > 10 | > 30 | > 10
CCC(C(=O)O)c1ccc(CC(C)C)cc1 (stereo unspecified) [BUTIBUFEN] | > 30 | > 30 | > 30 | > 30 | > 30 | > 30 | > 30 | > 30 | > 30 | > 30 | > 30 | > 30 | > 30
CN(C)C(=O)OC1N=C(c2ccccc2)c2cc(Cl)ccc2N(C)C1=O (stereo unspecified) [CAMAZEPAM] | > 10 | > 30 | > 10 | > 10 | > 10 | 18 | > 10 | > 30 | > 10 | > 30 | > 10 | > 30 | > 10
CCCCCOC(=O)Nc1nc(=O)n([C@@H]2O[C@H](C)[C@@H](O)[C@H]2O)cc1F [CAPECITABINE] | > 30 | > 30 | > 30 | > 30 | > 30 | > 30 | > 30 | > 30 | > 30 | > 30 | > 30 | > 30 | > 30
CCOC(=O)[C@H](CCc1ccccc1)N[C@H]1CCCN2CCC[C@@H](C(=O)O)N2C1=O [CILAZAPRIL] | > 30 | > 30 | > 30 | > 30 | > 30 | > 30 | > 30 | > 30 | > 30 | > 30 | > 30 | > 30 | > 30
CCOc1cc(N)c([N+](=O)[O-])cc1C(=O)NC1CCN(CC2CC=CCC2)CC1 (stereo unspecified) [CINITAPRIDE] | 5.9 | 0.07 | > 30 | 9.3 | 15 | 0.19 | > 30 | > 30 | > 30 | > 30 | > 30 | > 30 | 27
COC(=O)[C@H]1[C@@H](OC(=O)c2ccccc2)C[C@@H]2CC[C@H]1N2C [COCAINE] | > 30 | > 30 | > 30 | > 30 | > 30 | > 30 | > 30 | > 30 | > 30 | > 30 | > 30 | > 30 | > 30
O=C1CN=C(c2ccccc2)c2cc(Cl)ccc2N1CC(F)(F)F [HALAZEPAM] | > 30 | > 30 | > 30 | > 30 | > 30 | > 30 | > 30 | > 30 | > 30 | > 30 | > 30 | > 30 | > 30
CCC1(C2=CCCCCC2)C(=O)NC(=O)NC1=O [HEPTABARBITAL] | > 10 | > 10 | > 10 | > 10 | > 10 | > 10 | > 10 | > 10 | > 10 | > 30 | > 10 | > 10 | > 10
CCCCCN(C)CCC(O)(P(=O)(O)O)P(=O)(O)O [IBANDRONIC ACID] | > 30 | > 30 | > 30 | > 30 | > 30 | > 30 | > 30 | > 30 | > 30 | > 30 | > 30 | > 30 | > 30
CC/C=C\C/C=C\C/C=C\CCCCCCCC(=O)O [LINOLENIC ACID] | > 30 | > 30 | > 30 | > 30 | > 30 | – | > 30 | > 30 | > 30 | > 30 | > 30 | > 30 | > 30
O=C(O)CCCc1ccccc1 [PHENYLBUTANOIC ACID] | > 10 | > 30 | – | > 30 | > 10 | > 30 | > 10 | > 30 | > 30 | > 30 | > 30 | > 30 | > 30
Cc1c(Cl)cccc1Nc1ccccc1C(=O)O [TOLFENAMIC ACID] | > 30 | 15 | > 30 | > 30 | > 30 | > 30 | > 30 | > 30 | > 30 | 9.5 | 20 | – | > 30
COc1ccc(C(=O)N2CCN(c3ccc4c(c3)CCC(=O)N4)CC2)cc1OC [VESNARINONE] | > 30 | > 30 | > 30 | > 30 | > 30 | > 30 | > 30 | > 30 | > 30 | > 30 | > 30 | – | > 30
